In patent publication US8389573B2, “Glycyrrhetinic acid derivatives” (Wellington Laboratories Inc., priority 2006, dated 2013):

Legend:
PPARγ = biological target: T1, PPARγ (Homo sapiens, UniProt P37231); test: PPRE3-Luc transfection and luciferase assay in SW480 cells; type: cell-based
T1 construct: endogenous in cells; host or cells: SW480 colon cancer cells
T1 sequence (P37231 1-505): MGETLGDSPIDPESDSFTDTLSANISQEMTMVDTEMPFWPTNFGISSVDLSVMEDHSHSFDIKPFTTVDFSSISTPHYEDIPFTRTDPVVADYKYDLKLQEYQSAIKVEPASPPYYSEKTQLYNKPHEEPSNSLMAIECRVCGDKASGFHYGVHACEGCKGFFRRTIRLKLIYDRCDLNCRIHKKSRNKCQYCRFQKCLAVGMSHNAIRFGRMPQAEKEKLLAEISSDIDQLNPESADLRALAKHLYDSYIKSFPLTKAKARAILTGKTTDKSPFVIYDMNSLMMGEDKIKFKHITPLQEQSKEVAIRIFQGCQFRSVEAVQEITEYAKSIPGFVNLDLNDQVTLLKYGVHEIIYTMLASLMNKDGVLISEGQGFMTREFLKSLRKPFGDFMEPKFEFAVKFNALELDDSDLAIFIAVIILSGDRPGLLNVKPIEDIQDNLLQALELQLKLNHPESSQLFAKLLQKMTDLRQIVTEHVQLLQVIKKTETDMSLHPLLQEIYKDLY
Procedure: The Gal4 reporter containing 5× Gal4 response elements (pGal4) was kindly provided by Dr. Marty Mayo (University of North Carolina, Chapel Hill, N.C.). Gal4 DBD-PPARγ construct (gPPARγ) was a gift of Dr. Jennifer L. Oberfield (GlaxoSmithKline Research and Development, Research Triangle Park, N.C.). PPRE3-luc construct contains three tandem PPREs with a minimal TATA sequence in pGL2.
Colon Cancer cell lines SW480 and HT29 (1×10^5 cells/well) were plated in 12-well plates in DMEM/Ham's F-12 media supplemented with 2.5% charcoal-stripped FBS. After 16 h, various amounts of DNA [i.e., Gal4Luc (0.4 μg), β-Gal (0.04 μg), Gal4PPAR and PPRE3-Luc (0.04 μg)] were transfected using LipofectAMINE™ reagent (Invitrogen) following the manufacturer's protocol. Five hours after transfection, the transfection mix was replaced with complete media containing either vehicle (DMSO) or the indicated ligand for 20 to 22 h. Cells were then lysed with 100 μl of 1× reporter lysis buffer, and 30 μl of cell extract was used for luciferase and […] assays. A LumiCount™ luminometer (PerkinElmer Life and Analytical Sciences) was used to quantitate luciferase and β-Gal activities, and the luciferase activities were normalized to β-Gal activity. Results are expressed as means±S.E. for at least three replicate determinations for each treatment group

SW480 cells = test: Western blot analysis in SW480 cells; type: cell-based, human
Procedure: SW-480 and HT-29 (3×10^5) cells were seeded in six-well plates in DMEM/Ham's F-12 media containing 2.5% charcoal-stripped FBS for 24 h and then treated with either the vehicle (DMSO) or the indicated compounds. Whole-cell lysates were obtained using high-salt buffer [50 mM HEPES, 500 mM NaCl, 1.5 mM MgCl2, 1 mM EGTA, 10% glycerol, and 1% Triton X-100, pH 7.5, and 5 μl/ml Protease Inhibitor Cocktail (Sigma-Aldrich)]. Protein samples were incubated at 100° C. for 2 min, separated on 10% SDS-PAGE at 120 V for 3 to 4 h in 1× running buffer (25 mM Tris-base, 192 mM glycine, and 0.1% SDS, pH 8.3), and transferred to polyvinylidene difluoride membrane (PVDF; Bio-Rad, Hercules, Calif.) at […] for 16 h at 4° C. in 1× transfer buffer (48 mM Tris-HCl, 39 mM glycine, and 0.025% SDS). The PVDF membrane was blocked in 5% TBST-Blotto (10 mM Tris-HCl, 150 mM NaCl, pH 8.0, 0.05% Triton X-100, and 5% nonfat dry milk) with gentle shaking for 30 min and was incubated in fresh 5% TBST-Blotto with 1:1000 (for caveolin-1, p27, p21, cyclin D1, Grp78), 1:500 (for KLF4, NAG-1), 1:250 (for PARP), and 1:5000 (for β-actin) primary antibody overnight with gentle shaking at 4° C. After washing with TBST for 10 min, the PVDF membrane was incubated with secondary antibody (1:5000) in 5% TBST-Blotto for 90 min. The membrane was washed with TBST for 10 min, incubated with 10 ml of chemiluminescence substrate (PerkinElmer) for 1.0 min, and exposed to Kodak X-OMAT AR autoradiography film (Eastman Kodak, Rochester, N.Y.).

[1] = system: Panc28 pancreatic cancer cells; test: Growth inhibition in Panc28 pancreatic cancer cells; type: cell-based; settings: Pancreatic cancer cell

- transactivation of PPRE3-Luc (PPARγ): induced transactivation
- PPRE3-Luc transactivation after cotreatment with PPARγ antagonists T007 and GW9662 (PPARγ; 10 μM antagonist): inhibited
- IC50 [1]: 1000 to 2500 nM
SMILES: COC(=O)[C@@]1(C)CC[C@]2(C)CC[C@]3(C)C(=CC(=O)[C@@H]4[C@@]5(C)C=C(C#N)C(=O)C(C)(C)[C@@H]5CC[C@]43C)[C@@H]2C1 [β-CDODA-Me, Methyl 2-cyano-3,11-dioxo-18β-oleana-1,12-dien-30-oate]
- KLF4 induction (SW480 cells; SW480, 0.5-7.5 μM): induction
- NAG-1 induction (SW480 cells; SW480, 24 hr): not induced
- induction of GRP78 protein (ER stress) (SW480 cells; SW480, 24 hr): not observed
- KLF-4 induction after cotreatment with T007 (SW480 cells; SW480, 24 hr, 10 μM T007): blocks this induction response
- down regulation of cyclin D1, p27 or PARP cleavage after cotreatment with T007 (SW480 cells; SW480, 24 hr, 10 μM T007): does not affect
- PARP cleavage (indicator of apoptosis) (SW480 cells; SW480, 24 hr, 0.5-5.0 μM): only observed at higher concentrations
- p27 protein (SW480 cells; SW480, 24 hr, 0.5-5.0 μM): dose-dependent increase
- Cyclin D1 and p21 protein expression (SW480 cells; SW480, 24 hr, 0.5 or 1 μM): unchanged
- Cyclin D1 and p21 protein expression (SW480 cells; SW480, 24 hr, 2.5 and 5.0 μM): decreased
- caveolin-1 protein expression (SW480 cells; SW480, treatment for 3 days): did not affect expression of caveolin-1
